“And” between values parts separate entries of the source, which are not always exact repeats. Equal entries are not always repeated. Where two headings read alike, the source gives them in different places.
Experiments:
TRPA1V1 = test: Intracellular calcium (Fluo-4, FLIPR) activation of TRPA1V1 cells (co-expressing TRPA1 and TRPV1) by GRAS compounds; format: cell-based, human; settings: relative to AITC 30 μM;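 further: HEK293 cells co-expressing TRPA1 and TRPV1, fluorescence read at 488/514 nm after baseline subtraction, recorded every 2 s over 10 min, ionomycin 10 µM and buffer as controls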
human TRPA1 = biological target: T1, human TRPA1 (Homo sapiens, UniProt O75762, K186N/R3C/R58T); test: Intracellular calcium (Fluo-4, FLIPR) activation of TRPA1 cells by GRAS compounds; format: cell-based; settings: relative to AITC 30 μM;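 further: TRPA1-expressing cells, fluorescence read on a FLIPR Tetra (ex 488 nm, em 514 nm) every 2 s for 10 min after compound addition, baseline subtracted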
T1 construct: expressed in transfected cells; pcDNA3 control cells

[1] = Table 1(e), 1 mM, read-out: A1 activation, % of agonist value
[2] = Table 1(d), 1 mM, read-out: A1 activation, % of agonist value
[3] = Table 1(c), 1 mM, read-out: A1 activation, % of agonist value

T1 sequence (O75762 whole entry R3C/R58T/K186N): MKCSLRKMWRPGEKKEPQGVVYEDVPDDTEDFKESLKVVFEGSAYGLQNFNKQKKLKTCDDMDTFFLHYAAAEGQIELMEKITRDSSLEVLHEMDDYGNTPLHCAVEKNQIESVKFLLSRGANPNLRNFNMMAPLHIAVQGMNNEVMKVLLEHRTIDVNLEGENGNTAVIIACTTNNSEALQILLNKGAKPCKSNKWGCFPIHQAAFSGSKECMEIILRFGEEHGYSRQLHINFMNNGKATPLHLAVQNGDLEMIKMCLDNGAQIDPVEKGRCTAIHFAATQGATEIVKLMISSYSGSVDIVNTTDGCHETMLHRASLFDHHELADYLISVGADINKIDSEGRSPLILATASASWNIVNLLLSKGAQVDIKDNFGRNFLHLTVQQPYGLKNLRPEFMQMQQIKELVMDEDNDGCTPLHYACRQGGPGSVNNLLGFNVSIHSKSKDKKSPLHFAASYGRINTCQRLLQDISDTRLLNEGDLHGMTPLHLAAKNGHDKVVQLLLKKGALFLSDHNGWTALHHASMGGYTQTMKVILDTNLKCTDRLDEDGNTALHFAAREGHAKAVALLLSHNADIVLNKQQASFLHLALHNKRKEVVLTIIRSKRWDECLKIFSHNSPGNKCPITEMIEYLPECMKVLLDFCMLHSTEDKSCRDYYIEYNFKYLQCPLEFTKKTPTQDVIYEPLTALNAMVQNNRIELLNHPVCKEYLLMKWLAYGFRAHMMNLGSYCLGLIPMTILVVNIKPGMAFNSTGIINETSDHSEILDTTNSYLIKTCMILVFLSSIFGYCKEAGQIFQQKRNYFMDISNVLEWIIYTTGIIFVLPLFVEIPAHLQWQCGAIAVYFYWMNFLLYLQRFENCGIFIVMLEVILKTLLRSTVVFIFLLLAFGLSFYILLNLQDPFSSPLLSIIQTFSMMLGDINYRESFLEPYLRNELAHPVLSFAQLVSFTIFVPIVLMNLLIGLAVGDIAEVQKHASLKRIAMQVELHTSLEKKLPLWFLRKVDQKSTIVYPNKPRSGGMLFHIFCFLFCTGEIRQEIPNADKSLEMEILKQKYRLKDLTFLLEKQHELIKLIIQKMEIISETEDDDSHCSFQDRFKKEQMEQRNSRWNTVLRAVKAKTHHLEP

CC(C)C(=O)OCC(C)c1ccccc1 (centres unmarked) [2-Phenylpropyl isobutyrate]
A1V1 activation, % of agonist value (TRPA1V1; Table 1(e), 1 mM): 102.3% | activation at 1000 µM (human TRPA1; [1]): 67.4%

CCCCCCCCCCC=CC=O [2-Tridecenal]
A1V1 activation, % of agonist value (TRPA1V1; Table 1(c), 1 mM): 102% and 101% | A1V1 activation, % of agonist value (TRPA1V1; Table 1(d), 100 μM (*)): 43.5% | activation at 100 µM (human TRPA1; Table 1(d), 100 μM (*), read-out: A1 activation, % of agonist value): 76.3%

CC/C=C\CC/C=C/C=O [2-trans-6-cis-Nonadienal]
A1V1 activation, % of agonist value (TRPA1V1; Table 1(c), 1 mM): 81.22% | A1 activation, % of agonist value (human TRPA1; Table 1(c), 1 mM): 77.3%

CC(=O)c1ccc(C)cc1C [2′,4′-Dimethylacetophenone]
A1V1 activation, % of agonist value (TRPA1V1; Table 1(e), 1 mM): 45.30% | activation at 1000 µM (human TRPA1; [1]): 24.4%

C=C(C)CCCC(C)CCO (centres unmarked) [3,7-Dimethyl-7-octen-1-ol]
A1V1 activation, % of agonist value (TRPA1V1; Table 1(d), 1 mM): 70.7% | activation at 1000 µM (human TRPA1; [2]): 93.7%

OCC(=CCc1ccco1)c1ccccc1 [3-(2-Furfuryl)-2-phenylpropenol]
A1V1 activation, % of agonist value (TRPA1V1; Table 1(c), 100 μM (*)): 72.4% | A1 activation, % of agonist value (human TRPA1; Table 1(c), 100 μM (*)): 81.3%

O=CC=Cc1ccco1 [3-(2-Furyl)acrolein]
A1V1 activation, % of agonist value (TRPA1V1; Table 1(c), 1 mM): 66.5% | activation at 1000 µM (human TRPA1; [3]): 68.4%

CCCC(CCOC(C)=O)SC(C)=O (centres unmarked) [3-(Acetylmercapto)hexyl acetate]
A1V1 activation, % of agonist value (TRPA1V1; Table 1(e), 1 mM): 52.79% | activation at 1000 µM (human TRPA1; [1]): 22.3%

CCCC(CCOC(C)=O)SC (centres unmarked) [3-(Methylthio)hexyl acetate]
A1V1 activation, % of agonist value (TRPA1V1; Table 1(c), 1 mM): 87.6% | activation at 1000 µM (human TRPA1; [3]): 97.9%

CSCCC=O [3-(Methylthio)propionaldehyde]
A1V1 activation, % of agonist value (TRPA1V1; Table 1(d), 1 mM): 32.4% | activation at 1000 µM (human TRPA1; [2]): 53.8%

CC(=O)c1cc(C)oc1C [3-Acetyl-2,5-dimethylfuran]
A1V1 activation, % of agonist value (TRPA1V1; Table 1(c), 1 mM): 61% | activation at 1000 µM (human TRPA1; [3]): 73.5%

C=CCCN=C=S [3-Butenyl isothiocyanate]
A1V1 activation, % of agonist value (TRPA1V1; Table 1(c), 1 mM): 85.8% | activation at 1000 µM (human TRPA1; [3]): 99.4%

CCCC=C1OC(=O)c2ccccc21 [3-Butylidenephthalide]
A1V1 activation, % of agonist value (TRPA1V1; Table 1(c), 1 mM): 115.4% | activation at 1000 µM (human TRPA1; [3]): 119%

CCCC=CC(C)=O [3-Hepten-2-one]
A1V1 activation, % of agonist value (TRPA1V1; Table 1(d), 1 mM): 59% | activation at 1000 µM (human TRPA1; [2]): 82%

CC1=CC(=O)CCC1 [3-Methyl-2-cyclohexen-1-one]
A1V1 activation, % of agonist value (TRPA1V1; Table 1(c), 1 mM): 94.76% | activation at 1000 µM (human TRPA1; [3]): 94.5%

CC(C)CCN=C=S [3-Methylbutyl isothiocyanate]
A1V1 activation, % of agonist value (TRPA1V1; Table 1(e), 1 mM): 111.2% | activation at 1000 µM (human TRPA1; [1]): 61.1%

CC=CC(C)=O [3-Penten-2-one]
A1V1 activation, % of agonist value (TRPA1V1; Table 1(d), 1 mM): 35% | activation at 1000 µM (human TRPA1; [2]): 64.2%

CC1=NC(CC(C)C)SC1C (centres unmarked) [3-Thiazoline, 4,5-dimethyl-2-isobutyl-]
A1V1 activation, % of agonist value (TRPA1V1; Table 1(c), 1 mM): 138.7% | activation at 1000 µM (human TRPA1; [3]): 142%

CCOc1ccc(C=O)cc1 [4-Ethoxybenzaldehyde]
A1V1 activation, % of agonist value (TRPA1V1; Table 1(e), 1 mM): 103% | activation at 1000 µM (human TRPA1; [1]): 62%

COc1ccc(CCC(C)=O)cc1 [4-Methoxybenzylacetone]
A1V1 activation, % of agonist value (TRPA1V1; Table 1(c), 1 mM): 71.16% | activation at 1000 µM (human TRPA1; [3]): 62.3%

CC(=O)OCc1ccc(C)cc1 [4-Methylbenzyl acetate]
A1V1 activation, % of agonist value (TRPA1V1; Table 1(e), 1 mM): 88.05% | activation at 1000 µM (human TRPA1; [1]): 58.9%

C=CCCC=O [4-Pentenal]
A1V1 activation, % of agonist value (TRPA1V1; Table 1(c), 1 mM): 84.24% | activation at 1000 µM (human TRPA1; [3]): 75.4%

CC(C)CC=C(C=O)c1ccccc1 [5-Methy1-2-pheny1-2-hexenal]
A1V1 activation, % of agonist value (TRPA1V1; Table 1(e), 1 mM): 89.8% | A1 activation, % of agonist value (human TRPA1; Table 1(e), 1 mM): 60.5%

COc1ccc2ncccc2c1 [6-Methoxyquinoline]
A1V1 activation, % of agonist value (TRPA1V1; Table 1(e), 1 mM): 130.5% | activation at 1000 µM (human TRPA1; [1]): 57.8%

C=CCCCCCCCCC=O [10-Undecenal]
A1V1 activation, % of agonist value (TRPA1V1; Table 1(d), 1 mM): 28% | activation at 1000 µM (human TRPA1; [2]): 61.8%

CCCCCCCC/C=C/C=O [(2E)-Undecenal]
A1V1 activation, % of agonist value (TRPA1V1; Table 1(c), 1 mM): 48.8% | A1 activation, % of agonist value (human TRPA1; Table 1(c), 1 mM): 59.6%

CCCC/C=C/C=O [(E)-2-Heptenal]
A1V1 activation, % of agonist value (TRPA1V1; Table 1(c), 1 mM): 96.6% | activation at 1000 µM (human TRPA1; [3]): 112%

CCCCC/C=C/C=C/C=O [(E,E)-2,4-Decadienal]
A1V1 activation, % of agonist value (TRPA1V1; Table 1(d), 1 mM): 46% | activation at 1000 µM (human TRPA1; [2]): 142%

CCCCCCC/C=C/C=C/C=O [(E,E)-2,4-Dodecadienal]
A1V1 activation, % of agonist value (TRPA1V1; Table 1(d), 1 mM): 55.4% | activation at 1000 µM (human TRPA1; [2]): 159%

C/C=C/C=C/C=O [(E,E)-2,4-Hexadienal]
A1V1 activation, % of agonist value (TRPA1V1; Table 1(c), 1 mM): 108.71% | activation at 1000 µM (human TRPA1; [3]): 92%

CC/C=C/CC/C=C/C=O [(E,E)-2,6-Nonadienal]
A1V1 activation, % of agonist value (TRPA1V1; Table 1(c), 1 mM): 89.61% | activation at 1000 µM (human TRPA1; [3]): 87.1%

CC/C=C/C=C/CO [(E,E)-Hepta-2,4-dien-1-ol]
A1V1 activation, % of agonist value (TRPA1V1; Table 1(c), 1 mM): 133.3% | activation at 1000 µM (human TRPA1; [3]): 146%

CC(C)=CCC[C@](C)(O)[C@@H]1CC=C(C)CC1 [(−)-Alpha-Bisabolol]
A1V1 activation, % of agonist value (TRPA1V1; Table 1(c), 1 mM): 83.53% | A1 activation, % of agonist value (human TRPA1; Table 1(c), 1 mM): 71.26%

Ammonium carbonate
A1V1 activation, % of agonist value (TRPA1V1; Table 1(c), 1 mM): 58.42%
